# Data reported in US12458616B2, “Levodopa dosing regimen” (Amneal Pharmaceuticals, LLC, priority 2020, dated 2025).
# Like-named read-outs stand apart in the source and are kept apart here.
# Columns and labels:
# [1] = Example 12 pharmacokinetics in healthy subjects: fed, sprinkled on applesauce, fasted; format: in vivo, human; conditions: Example 7 capsule 350 mg LD/87.5 mg CD; for Tmax: median (min-max); for AUC(0-t): hour 0 to 24 hours; for Cmax: po, single oral dose
# Experimental: The dosage forms described in Example 7 were administered to 27 healthy male and female subjects between the ages of 18 and 55 with a body weight of at least 55 kg and body mass index of 18.5 to 30.0 kg/m^2 in a single site, open label, single dose, 3-treatment, 3-period, crossover study. The subjects were fasted overnight for at least 10 hours and received a single dose of 350 mg LD and 87.5 CD for each treatment separated by a 6 to 7 day washout period.
# No additional food was allowed for at least 4 hours post dose.
# Treatment B comprised the oral administration of one capsule prepared in accordance with Example 7 containing 350 mg LD and 87.5 mg CD wherein the contents of the capsule were sprinkled onto 1 tablespoon of applesauce. No additional food was allowed for at least 4 hours post dose.
# Treatment C comprised the oral administration of one capsule prepared in accordance with Example 7 containing 350 mg LD and 87.5 mg CD with 240 mL of water. No food was allowed for at least 4 hours post dose.
# For Treatments A and C the subjects were instructed to swallow the capsule intact and not to chew, divide or crush the tablet.
# For Treatment B, the subjects were instructed to consume all the applesauce without crushing or chewing the beads.
# Whole blood samples were taken prior to dosing and at 0.5, 1, 1.5, 2, 2.5, 3, 4, 5, 6, 7, 8, 10, 12, 16 and 24 hours post dose. The plasma samples were analyzed for concentrations of CD and LD by a validated liquid chromatography-tandem mass spectrometry (LC-MS/MS) method. Peak plasma (Cmax), area under the plasma concentration-time curve (AUCt and AUC∞), and time to maximum concentration (Tmax) for LD and CD were evaluated. The mean pharmacokinetic parameters are showing in the following table and in FIGS. 20 and 21.
# [2] = cited from earlier work
# [3] = both sexes, human, plasma, oral, Fasted, mean ± SD
# [4] = both sexes, human, plasma, oral, Fasted, read-out: Tmax
# [5] = both sexes, human, plasma, oral, Fed, mean ± SD
# [6] = both sexes, human, plasma, oral, Fed, read-out: Tmax
# [7] = both sexes, human, plasma, oral, Sprinkled on Applesauce, mean ± SD
# [8] = both sexes, human, plasma, Fasted, mean ± SD
# [9] = both sexes, human, plasma, Fed (high-fat breakfast), mean ± SD
# [10] = both sexes, human, plasma, Sprinkled on Applesauce, mean ± SD
"half-life [1, 3] [min]","Tmax [1, 4] [h]","AUC(0-t) [1, 3] [ng·h/mL]","half-life [1, 5] [min]","Tmax [1, 6] [h]","AUC(0-t) [1, 5] [ng·h/mL]","half-life [1, 7] [min]","Tmax ([1]; both sexes, human, plasma, oral, Sprinkled on Applesauce, read-out: Tmax) [h]","AUC(0-t) [1, 7] [ng·h/mL]","Cmax [1, 8] [ng/mL]","Cmax [1, 9] [ng/mL]","Cmax [1, 10] [ng/mL]","T1/2 ([1]; Fed, mean ± SD) [h]",Tmax ([1]; Sprinkled on Applesauce),Structure (SMILES),plasma half-life ([2]; orally administered with CD),plasma half-life ([2]; orally administered without CD)
234 ± 33.6,3,2180 ± 906,232 ± 46.8,4,751 ± 205,237 ± 40.2,2.5,1910 ± 618,404 ± 157,141 ± 41.1,339 ± 91.8,,,C[C@@](Cc1ccc(O)c(O)c1)(NN)C(=O)O [Carbidopa],,
120 ± 18,2,9120 ± 2150,,4,10600 ± 1430,121 ± 18.6,,8330 ± 1960,1830 ± 385,2190 ± 473,1630 ± 409,1.79 ± 0.3,0.5 (0.5-5.0) h,"N[C@@H](Cc1ccc(O)c(O)c1)C(=O)O [LD, levodopa]",about 1.5 hours,about 50 minutes
